Here are results for 16 compounds from patent US20260297085A1, “1 H-PYRROLO[2,3-B]PYRIDIN-4-YL]-2-OXOPYRROLIDINE-3-CARBONITRILE DERIVATIVES AS TYROSINE KINASE 2 (TYK2) INHIBITORS FOR THE TREATMENT OF INFLAMMATORY DISEASES” (BIOGEN MA INC., priority 2023, published 2026).

Assay [1] concerns the target T1, human TYK2 kinase domain (JH1) (Homo sapiens, UniProt P29597).
T1 construct: recombinantly generated catalytic kinase (also known as JH1) domain of human JAK1, JAK2, JAK3 and TYK2
T1 sequence (P29597 897-1176 limits assumed): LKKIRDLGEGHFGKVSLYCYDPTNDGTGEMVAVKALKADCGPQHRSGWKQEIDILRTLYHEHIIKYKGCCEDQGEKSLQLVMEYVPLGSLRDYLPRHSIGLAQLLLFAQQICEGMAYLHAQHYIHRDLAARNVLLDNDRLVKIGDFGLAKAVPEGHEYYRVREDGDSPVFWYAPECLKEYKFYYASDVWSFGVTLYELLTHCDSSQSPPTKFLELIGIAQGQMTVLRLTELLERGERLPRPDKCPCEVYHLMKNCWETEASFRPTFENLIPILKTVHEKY
The assay can be described thus: JH1 biochemical assay for TYK2 (ADP-Glo kinase assay, recombinant JH1 catalytic domain, JAK3-974 peptide, 10 μM ATP). In short, it runs like this: (§1)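 Enzyme levels: JAK1 4 nM, JAK2 0.2 nM, JAK3 0.3 nM, TYK2 2 nM. Peptide substrate at 50 μM. Reactions ran 100 minutes; ADP formed was converted to luciferase luminescence after ATP depletion. Compounds tested from 10 μM or 1 μM top, 11-point 3-fold dilutions; IC50 from 4-parameter logistic fit of normalized percent activity.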
Background: In ADP-Glo the light output rises with the ADP produced.

Assay [2] deals with T2, human JAK1 kinase domain (JH1) (Homo sapiens, UniProt P23458).
T2 construct: recombinantly generated catalytic kinase (also known as JH1) domain of human JAK1, JAK2, JAK3 and TYK2
T2 sequence (P23458 875-1153 limits assumed): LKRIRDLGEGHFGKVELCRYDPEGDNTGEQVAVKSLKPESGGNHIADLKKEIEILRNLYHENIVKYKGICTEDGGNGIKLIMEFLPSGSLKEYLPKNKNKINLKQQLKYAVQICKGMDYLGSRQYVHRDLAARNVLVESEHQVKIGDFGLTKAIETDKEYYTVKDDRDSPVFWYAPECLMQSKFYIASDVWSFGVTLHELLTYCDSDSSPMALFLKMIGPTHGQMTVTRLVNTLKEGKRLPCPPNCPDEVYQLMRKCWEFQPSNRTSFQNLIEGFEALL
The assay can be described thus: JH1 biochemical assay for JAK1 (ADP-Glo kinase assay, recombinant JH1 catalytic domain, JAK3-342 peptide, 35 μM ATP). The method in brief: as §1

For assay [3], the target named is T3, human JAK2 kinase domain (JH1) (Homo sapiens, UniProt O60674).
T3 construct: recombinantly generated catalytic kinase (also known as JH1) domain of human JAK1, JAK2, JAK3 and TYK2
T3 sequence (O60674 849-1124 limits assumed): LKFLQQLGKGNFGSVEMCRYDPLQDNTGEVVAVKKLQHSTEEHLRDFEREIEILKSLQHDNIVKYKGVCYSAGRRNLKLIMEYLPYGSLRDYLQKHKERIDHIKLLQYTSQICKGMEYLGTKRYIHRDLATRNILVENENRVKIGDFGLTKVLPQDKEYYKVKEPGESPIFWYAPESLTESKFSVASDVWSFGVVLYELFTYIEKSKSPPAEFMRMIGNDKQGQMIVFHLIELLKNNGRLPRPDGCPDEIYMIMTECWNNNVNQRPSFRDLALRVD
In words: JH1 biochemical assay for JAK2 (ADP-Glo kinase assay, recombinant JH1 catalytic domain, JAK3-974 peptide, 15 μM ATP). In short, it runs like this: as §1

In assay [4] the target is T4, human JAK3 kinase domain (JH1) (Homo sapiens, UniProt P52333).
T4 construct: recombinantly generated catalytic kinase (also known as JH1) domain of human JAK1, JAK2, JAK3 and TYK2
T4 sequence (P52333 822-1111 limits assumed): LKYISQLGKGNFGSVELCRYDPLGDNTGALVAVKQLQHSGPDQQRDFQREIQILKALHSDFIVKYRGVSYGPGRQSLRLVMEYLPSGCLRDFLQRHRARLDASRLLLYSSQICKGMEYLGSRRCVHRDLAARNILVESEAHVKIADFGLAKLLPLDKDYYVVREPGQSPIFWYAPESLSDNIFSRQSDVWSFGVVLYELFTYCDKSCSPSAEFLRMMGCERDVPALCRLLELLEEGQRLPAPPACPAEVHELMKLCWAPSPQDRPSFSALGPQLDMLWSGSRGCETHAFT
The assay can be described thus: JH1 biochemical assay for JAK3 (ADP-Glo kinase assay, recombinant JH1 catalytic domain, JAK3-974 peptide, 4 μM ATP). In short, it runs like this: as §1

Counter-ions that a name gives are not always drawn. A value given as a limit tells only on which side of the number the result lay.

In general, IC50 refers to the concentration that gives 50% inhibition. `C[C@@H]1CN(c2ccnn3cc(-c4ncccc4O)cc23)C(=O)[C@]1(C#N)C1CC1` [Example 149, (3R,4S)-3-cyclopropyl-1-(6-(3-hydroxypyridin-2-yl)pyrrolo[1,2-b]pyridazin-4-yl)-4-methyl-2-oxopyrrolidine-3-carbonitrile trifluoroacetate]: the 50% inhibitory concentration (IC50) in assay [1] (JH1 kinase domain, ADP-Glo) is 20 to 50 nM; in assay [2] (JH1 kinase domain, ADP-Glo), 1000 to 5000 nM; in assay [3] (JH1 kinase domain, ADP-Glo) it was 5000 to 10000 nM; in assay [4] (JH1 kinase domain, ADP-Glo) it was 1000 to 5000 nM.
For the compound `C[C@@H]1CN(c2ccnn3cc(-c4ccc(CO)cn4)cc23)C(=O)[C@]1(C#N)C1CC1` [Example 150, (3R,4S)-3-cyclopropyl-1-(6-(5-(hydroxymethyl)pyridin-2-yl)pyrrolo[1,2-b]pyridazin-4-yl)-4-methyl-2-oxopyrrolidine-3-carbonitrile trifluoroacetate], the IC50 fell in the range of 5 to 20 nM in assay [1] (JH1 kinase domain, ADP-Glo); 100 to 1000 nM in assay [2] (JH1 kinase domain, ADP-Glo); 100 to 1000 nM in assay [3] (JH1 kinase domain, ADP-Glo); 100 to 1000 nM in assay [4] (JH1 kinase domain, ADP-Glo).
As for `C[C@@H]1CN(c2ccnn3cc(-c4cnccn4)cc23)C(=O)[C@]1(C#N)C1CC1` [Example 151, (3R,4S)-3-cyclopropyl-4-methyl-2-oxo-1-(6-(pyrazin-2-yl)pyrrolo[1,2-b]pyridazin-4-yl)pyrrolidine-3-carbonitrile trifluoroacetate], the half-maximal inhibitory concentration (IC50) in assay [1] (JH1 kinase domain, ADP-Glo) is 50 to 100 nM; in assay [2] (JH1 kinase domain, ADP-Glo), 1000 to 5000 nM; in assay [3] (JH1 kinase domain, ADP-Glo), 1000 to 5000 nM; in assay [4] (JH1 kinase domain, ADP-Glo), 1000 to 5000 nM.
With `C[C@@H]1CN(c2ccnn3cc(-c4cnn5c4CCCC5)cc23)C(=O)[C@]1(C#N)C1CC1` [Example 173, (3R,4S)-3-cyclopropyl-4-methyl-2-oxo-1-(6-(4,5,6,7-tetrahydropyrazolo[1,5-a]pyridin-3-yl)pyrrolo[1,2-b]pyridazin-4-yl)pyrrolidine-3-carbonitrile], the IC50 in assay [1] (JH1 kinase domain, ADP-Glo) fell in the range of 5 to 20 nM; in assay [2] (JH1 kinase domain, ADP-Glo), 100 to 1000 nM; in assay [3] (JH1 kinase domain, ADP-Glo) it was 100 to 1000 nM; in assay [4] (JH1 kinase domain, ADP-Glo), 100 to 1000 nM.
Take `CCc1ccncc1-c1cc2c(N3C[C@@H](C)[C@@](C#N)(C4CC4)C3=O)ccnn2c1` [Example 175, (3R,4S)-3-cyclopropyl-1-(6-(4-ethylpyridin-3-yl)pyrrolo[1,2-b]pyridazin-4-yl)-4-methyl-2-oxopyrrolidine-3-carbonitrile trifluoroacetate]: the IC50 in assay [1] (JH1 kinase domain, ADP-Glo) was above 100 nM; in assay [2] (JH1 kinase domain, ADP-Glo) it was 5000 to 10000 nM; in assay [3] (JH1 kinase domain, ADP-Glo), above 10000 nM; in assay [4] (JH1 kinase domain, ADP-Glo), above 10000 nM.
On to `C[C@@H]1CN(c2ccnn3cc(-c4cncc(OC(F)F)c4)cc23)C(=O)[C@]1(C#N)C1CC1` [Example 177, (3R,4S)-3-cyclopropyl-1-(6-(5-(difluoromethoxy)pyridin-3-yl)pyrrolo[1,2-b]pyridazin-4-yl)-4-methyl-2-oxopyrrolidine-3-carbonitrile], for which the IC50 was 20 to 50 nM in assay [1] (JH1 kinase domain, ADP-Glo); 100 to 1000 nM in assay [2] (JH1 kinase domain, ADP-Glo); 1000 to 5000 nM in assay [3] (JH1 kinase domain, ADP-Glo); 1000 to 5000 nM in assay [4] (JH1 kinase domain, ADP-Glo).
`CCc1ncccc1-c1cc2c(N3C[C@@H](C)[C@@](C#N)(C4CC4)C3=O)ccnn2c1` [Example 178, (3R,4S)-3-cyclopropyl-1-(6-(2-ethylpyridin-3-yl)pyrrolo[1,2-b]pyridazin-4-yl)-4-methyl-2-oxopyrrolidine-3-carbonitrile trifluoroacetate]: the half-maximal inhibitory concentration (IC50) in assay [1] (JH1 kinase domain, ADP-Glo) is above 100 nM; in assay [2] (JH1 kinase domain, ADP-Glo), 5000 to 10000 nM; in assay [3] (JH1 kinase domain, ADP-Glo), above 10000 nM; in assay [4] (JH1 kinase domain, ADP-Glo) it was 5000 to 10000 nM.
For `C[C@@H]1CN(c2ccnn3cc(-c4cnccc4C(F)(F)F)cc23)C(=O)[C@]1(C#N)C1CC1` [Example 179, (3R,4S)-3-cyclopropyl-4-methyl-2-oxo-1-(6-(4-(trifluoromethyl)pyridin-3-yl)pyrrolo[1,2-b]pyridazin-4-yl)pyrrolidine-3-carbonitrile], the IC50 was above 100 nM in assay [1] (JH1 kinase domain, ADP-Glo); above 10000 nM in assay [2] (JH1 kinase domain, ADP-Glo); above 10000 nM in assay [3] (JH1 kinase domain, ADP-Glo); above 10000 nM in assay [4] (JH1 kinase domain, ADP-Glo).
Consider `C[C@@H]1CN(c2ccnn3c(F)c(-c4cnn(C)c4)nc23)C(=O)[C@]1(C#N)C1CC1` [Example 183, (3R,4S)-3-cyclopropyl-1-(3-fluoro-2-(1-methyl-1H-pyrazol-4-yl)imidazo[1,2-b]pyridazin-8-yl)-4-methyl-2-oxopyrrolidine-3-carbonitrile], for which the IC50 in assay [1] (JH1 kinase domain, ADP-Glo) was above 100 nM; in assay [2] (JH1 kinase domain, ADP-Glo) it was above 10000 nM; in assay [3] (JH1 kinase domain, ADP-Glo) it was above 10000 nM; in assay [4] (JH1 kinase domain, ADP-Glo), above 10000 nM.
Consider `COc1cc(-c2cn3nccc3c(N3C[C@@H](C)[C@@](C#N)(C4CC4)C3=O)n2)c(F)cn1` [Example 196, (3R,4S)-3-cyclopropyl-1-(6-(5-fluoro-2-methoxypyridin-4-yl)pyrazolo[1,5-a]pyrazin-4-yl)-4-methyl-2-oxopyrrolidine-3-carbonitrile], for which the IC50 in assay [1] (JH1 kinase domain, ADP-Glo) lay within 20 to 50 nM; in assay [2] (JH1 kinase domain, ADP-Glo) it was 100 to 1000 nM; in assay [3] (JH1 kinase domain, ADP-Glo) it was 1000 to 5000 nM; in assay [4] (JH1 kinase domain, ADP-Glo), 100 to 1000 nM.
For `Cc1nn(C)c(C)c1-c1cn2nccc2c(N2C[C@@H](C)[C@@](C#N)(C3CC3)C2=O)n1` [Example 200, (3R,4S)-3-cyclopropyl-4-methyl-2-oxo-1-(6-(1,3,5-trimethyl-1H-pyrazol-4-yl)pyrazolo[1,5-a]pyrazin-4-yl)pyrrolidine-3-carbonitrile], the IC50 in assay [1] (JH1 kinase domain, ADP-Glo) was 20 to 50 nM; in assay [2] (JH1 kinase domain, ADP-Glo), 100 to 1000 nM; in assay [3] (JH1 kinase domain, ADP-Glo), 1000 to 5000 nM; in assay [4] (JH1 kinase domain, ADP-Glo), 100 to 1000 nM.
With `C[C@@H]1CN(c2nc(-c3ncccc3F)cn3nccc23)C(=O)[C@]1(C#N)C1CC1` [Example 212, (3R,4S)-3-cyclopropyl-1-(6-(3-fluoropyridin-2-yl)pyrazolo[1,5-a]pyrazin-4-yl)-4-methyl-2-oxopyrrolidine-3-carbonitrile], the IC50 is 50 to 100 nM in assay [1] (JH1 kinase domain, ADP-Glo); 1000 to 5000 nM in assay [2] (JH1 kinase domain, ADP-Glo); above 10000 nM in assay [3] (JH1 kinase domain, ADP-Glo); 1000 to 5000 nM in assay [4] (JH1 kinase domain, ADP-Glo).
`C[C@@H]1CN(c2nccn3nc(-c4cnn(C)c4)cc23)C(=O)[C@]1(C#N)C1CC1` [Example 216, (3R,4S)-3-cyclopropyl-4-methyl-1-(2-(1-methyl-1H-pyrazol-4-yl)pyrazolo[1,5-a]pyrazin-4-yl)-2-oxopyrrolidine-3-carbonitrile]: the IC50 was above 100 nM in assay [1] (JH1 kinase domain, ADP-Glo); above 10000 nM in assay [2] (JH1 kinase domain, ADP-Glo); above 10000 nM in assay [3] (JH1 kinase domain, ADP-Glo); above 10000 nM in assay [4] (JH1 kinase domain, ADP-Glo).
Take `C[C@@H]1CN(c2nc(-c3cccnc3)cn3ncc(F)c23)C(=O)[C@]1(C#N)C1CC1` [Example 222, (3R,4S)-3-cyclopropyl-1-(3-fluoro-6-(pyridin-3-yl)pyrazolo[1,5-a]pyrazin-4-yl)-4-methyl-2-oxopyrrolidine-3-carbonitrile]: the IC50 was in the range of 50 to 100 nM in assay [1] (TYK2 JH1, ADP-Glo); 1000 to 5000 nM in assay [2] (JAK1 JH1, ADP-Glo); 1000 to 5000 nM in assay [3] (JAK2 JH1, ADP-Glo); 100 to 1000 nM in assay [4] (JAK3 JH1, ADP-Glo).
Take `COc1cncc(-c2cn3ncc(F)c3c(N3C[C@@H](C)[C@@](C#N)(C4CC4)C3=O)n2)c1` [Example 223, (3R,4S)-3-cyclopropyl-1-(3-fluoro-6-(5-methoxypyridin-3-yl)pyrazolo[1,5-a]pyrazin-4-yl)-4-methyl-2-oxopyrrolidine-3-carbonitrile]: the IC50 lay within 50 to 100 nM in assay [1] (TYK2 JH1, ADP-Glo); 1000 to 5000 nM in assay [2] (JAK1 JH1, ADP-Glo); 1000 to 5000 nM in assay [3] (JAK2 JH1, ADP-Glo); 1000 to 5000 nM in assay [4] (JAK3 JH1, ADP-Glo).
For the compound `COc1ccc(-c2cn3nccc3c(N3C[C@@H](C)[C@@](C#N)(C4CC4)C3=O)n2)cn1` [Example 224, (3R,4S)-3-cyclopropyl-1-(6-(6-methoxypyridin-3-yl)pyrazolo[1,5-a]pyrazin-4-yl)-4-methyl-2-oxopyrrolidine-3-carbonitrile], the IC50 was 20 to 50 nM in assay [1] (TYK2 JH1, ADP-Glo); 100 to 1000 nM in assay [2] (JAK1 JH1, ADP-Glo); 1000 to 5000 nM in assay [3] (JAK2 JH1, ADP-Glo); 1000 to 5000 nM in assay [4] (JAK3 JH1, ADP-Glo).
